target: T1, GlyT1 (Homo sapiens, UniProt P48067); experiment: Glycine Transporter 1 (GlyT1) uptake assay, scintillation proximity assay of [14C]-glycine uptake; format: cell-based; settings: [14C]-glycine uptake; read-out: GlyT1 (pIC50) (converted)
T1 construct: expressed in transfected cells
T1 sequence (P48067 1-706): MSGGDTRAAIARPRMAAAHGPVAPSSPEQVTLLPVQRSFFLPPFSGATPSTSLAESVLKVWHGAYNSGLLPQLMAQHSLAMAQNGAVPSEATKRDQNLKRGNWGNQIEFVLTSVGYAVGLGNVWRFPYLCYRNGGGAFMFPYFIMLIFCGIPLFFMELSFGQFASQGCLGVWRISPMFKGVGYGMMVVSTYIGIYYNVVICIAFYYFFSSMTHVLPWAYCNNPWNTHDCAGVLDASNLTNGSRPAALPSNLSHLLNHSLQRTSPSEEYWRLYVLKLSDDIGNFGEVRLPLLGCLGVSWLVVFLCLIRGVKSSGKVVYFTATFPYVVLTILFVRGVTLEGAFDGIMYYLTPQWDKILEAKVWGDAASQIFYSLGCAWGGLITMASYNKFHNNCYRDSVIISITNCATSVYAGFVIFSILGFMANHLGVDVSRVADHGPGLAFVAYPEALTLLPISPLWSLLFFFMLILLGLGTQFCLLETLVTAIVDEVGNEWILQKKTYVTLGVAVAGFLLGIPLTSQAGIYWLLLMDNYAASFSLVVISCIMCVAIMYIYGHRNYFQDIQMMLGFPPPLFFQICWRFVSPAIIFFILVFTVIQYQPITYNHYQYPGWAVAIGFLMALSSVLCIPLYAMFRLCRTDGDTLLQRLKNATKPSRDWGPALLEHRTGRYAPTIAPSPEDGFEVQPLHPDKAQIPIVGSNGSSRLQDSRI
How it was run: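 IC50 values were derived by four-parameter logistic fitting of counts. The 2× compound solutions were made by 1:100 dilution into HBSS of DMSO serial dilutions.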

Row | SMILES | IC50
1 | COc1c(S(C)(=O)=O)ccc(OC(C)C(F)(F)F)c1C(=O)N1CC(Oc2ccc(F)cc2)C1 (centres unmarked) [Example 16, 3-(4-Fluorophenoxy)-1-({3-methanesulfonyl-2-methoxy-6-[(1,1,1-trifluoropropan-2-yl)oxy]phenyl}carbonyl)azetidine] | < 100 nM
2 | COc1cc(C#N)ccc1C1CN(C(=O)c2c(O[C@@H](C)C(F)(F)F)ccc(C#N)c2OC)C1 [Example 128, 3-{[3-(4-Cyano-2-methoxyphenyl)azetidin-1-yl]carbonyl}-2-methoxy-4-{[(2S)-1,1,1-trifluoropropan-2-yl]oxy}benzonitrile] | < 100 nM
3 | COc1c(S(C)(=O)=O)ccc(O[C@@H](C)C(F)(F)F)c1C(=O)N1CC(c2cccc(F)c2Cl)C1 [Example 253, 3-(2-Chloro-3-fluorophenyl)-1-(3-methanesulfonyl-2-methoxy-6-{[(2S)-1,1,1-trifluoropropan-2-yl]oxy}benzoyl)azetidine] | < 100 nM
4 | COc1c(S(C)(=O)=O)ccc(OCC(C)(C)C)c1C(=O)N1CC(c2ccc3ncoc3c2)C1 [Example 249, 6-{1-[6-(2,2-Dimethylpropoxy)-3-methanesulfonyl-2-methoxybenzoyl]azetidin-3-yl}-1,3-benzoxazole] | 100 to 1000 nM
5 | COc1c(S(C)(=O)=O)ccc(O[C@@H](C)C(F)(F)F)c1C(=O)N1CC(Oc2ccc(F)cc2F)C1 [Example 204, 3-(2,4-Difluorophenoxy)-1-(3-methanesulfonyl-2-methoxy-6-{[(2S)-1,1,1-trifluoropropan-2-yl]oxy}benzoyl)azetidine] | < 100 nM
6 | COc1c(C#N)ccc(OC(C)C(F)(F)F)c1C(=O)N1CC(O)(c2ccc(C(F)(F)F)cc2)C1 (centres unmarked) [Example 64, 3-({3-Hydroxy-3-[4-(trifluoromethyl)phenyl]azetidin-1-yl}carbonyl)-2-methoxy-4-[(1,1,1-trifluoropropan-2-yl)oxy]benzonitrile] | 100 to 1000 nM
7 | COc1c(C#N)ccc(C2CCCC2)c1C(=O)N1CC(c2ncc(C(F)(F)F)cc2Cl)C1 [Example 209, 3-{3-[3-Chloro-5-(trifluoromethyl)pyridin-2-yl]azetidine-1-carbonyl}-4-cyclopentyl-2-methoxybenzonitrile] | 100 to 1000 nM
8 | COc1c(S(C)(=O)=O)ccc(OCC(F)(F)F)c1C(=O)N1CC(Oc2ccc(Cl)cn2)C1 [Example 232, 5-Chloro-2-({1-[3-methanesulfonyl-2-methoxy-6-(2,2,2-trifluoroethoxy)benzoyl]azetidin-3-yl}oxy)pyridine] | < 100 nM
9 | COc1c(C#N)ccc(OC(C)C(F)(F)F)c1C(=O)N1CC(c2ccncc2)C1 (centres unmarked) [Example 75, 2-Methoxy-3-{[3-(pyridin-4-yl)azetidin-1-yl]carbonyl}-4-[(1,1,1-trifluoropropan-2-yl)oxy]benzonitrile] | 1000 to 10000 nM
10 | COc1c(C#N)ccc(O[C@@H](C)C(F)(F)F)c1C(=O)N1CC(c2ccc(C(F)F)cn2)C1 [Example 115, 3-({3-[5-(Difluoromethyl)pyridin-2-yl]azetidin-1-yl}carbonyl)-2-methoxy-4-{[(2S)-1,1,1-trifluoropropan-2-yl]oxy}benzonitrile] | 100 to 1000 nM
11 | COc1c(S(C)(=O)=O)ccc(OC(C)C(F)(F)F)c1C(=O)N1CC(c2ccc(F)c(F)c2)C1 (centres unmarked) [Example 15, 3-(3,4-Difluorophenyl)-1-({3-methanesulfonyl-2-methoxy-6-[(1,1,1-trifluoropropan-2-yl)oxy]phenyl}carbonyl)azetidine] | < 100 nM
12 | COc1c(C#N)ccc(OC(C)C(F)(F)F)c1C(=O)N1CC(c2cccc(C(F)(F)F)c2)C1 (centres unmarked) [Example 99, 2-Methoxy-3-({3-[3-(trifluoromethyl)phenyl]azetidin-1-yl}carbonyl)-4-[(1,1,1-trifluoropropan-2-yl)oxy]benzonitrile] | < 100 nM
13 | COc1c(C#N)ccc(C2CCCC2)c1C(=O)N1CC(Oc2c(F)cc(F)cc2F)C1 [Example 212, 4-Cyclopentyl-2-methoxy-3-[3-(2,4,6-trifluorophenoxy)azetidine-1-carbonyl]benzonitrile] | 100 to 1000 nM
14 | COc1c(C#N)ccc(OC(C)C(F)(F)F)c1C(=O)N1CC(c2ccc(C3CCOCC3)cc2)C1 (centres unmarked) [Example 6, 2-methoxy-3-(3-(4-(tetrahydro-2H-pyran-4-yl)phenyl)azetidine-1-carbonyl)-4-((1,1,1-trifluoropropan-2-yl)oxy)benzonitrile] | 100 to 1000 nM
15 | COc1c(C#N)ccc(O[C@@H](C)C(F)(F)F)c1C(=O)N1CC(c2ccc(C3CCOCC3)c(F)c2)C1 [Example 163, 3-{3-[3-Fluoro-4-(oxan-4-yl)phenyl]azetidine-1-carbonyl}-2-methoxy-4-{[(2S)-1,1,1-trifluoropropan-2-yl]oxy}benzonitrile] | < 100 nM
16 | COc1c(S(C)(=O)=O)ccc(O[C@@H](C)C(F)(F)F)c1C(=O)N1CC(c2ccc(C(F)F)cc2Cl)C1 [Example 147, 3-[2-Chloro-4-(difluoromethyl)phenyl]-1-(3-methanesulfonyl-2-methoxy-6-{[(2S)-1,1,1-trifluoropropan-2-yl]oxy}benzoyl)azetidine] | < 100 nM
17 | COc1c(S(C)(=O)=O)ccc(O[C@@H](C)C(F)(F)F)c1C(=O)N1CC(Oc2ccc(F)c(F)c2)C1 [Example 195, 3-(3,4-Difluorophenoxy)-1-(3-methanesulfonyl-2-methoxy-6-{[(2S)-1,1,1-trifluoropropan-2-yl]oxy}benzoyl)azetidine] | 100 to 1000 nM
18 | COc1c(C#N)ccc(C2(F)CCOCC2)c1C(=O)N1CC(c2ccc(Cl)cc2)C1 [Example 20, 3-{[3-(4-Chlorophenyl)azetidin-1-yl]carbonyl}-4-(4-fluorooxan-4-yl)-2-methoxybenzonitrile] | < 100 nM
19 | COc1ccc(C2CN(C(=O)c3c(OC(C)C(F)(F)F)ccc(C#N)c3OC)C2)cc1 (centres unmarked) [Example 96, 2-Methoxy-3-{[3-(4-methoxyphenyl)azetidin-1-yl]carbonyl}-4-[(1,1,1-trifluoropropan-2-yl)oxy]benzonitrile] | < 100 nM
20 | COc1c(C#N)ccc(OC(C)C(F)(F)F)c1C(=O)N1CC(c2ccc(C(F)(F)F)nc2)C1 (centres unmarked) [Example 113, 2-Methoxy-3-({3-[6-(trifluoromethyl)pyridin-3-yl]azetidin-1-yl}carbonyl)-4-[(1,1,1-trifluoropropan-2-yl)oxy]benzonitrile] | < 100 nM
21 | COc1c(S(C)(=O)=O)ccc(OCC(F)(F)F)c1C(=O)N1CC(Oc2ccc(Cl)cc2)C1 [Example 222, 3-(4-Chlorophenoxy)-1-[3-methanesulfonyl-2-methoxy-6-(2,2,2-trifluoroethoxy)benzoyl]azetidine] | 100 to 1000 nM
22 | COc1c(C#N)ccc(C2CC(F)(F)C2)c1C(=O)N1CC(c2ncc(C(F)(F)F)cc2Cl)C1 [Example 152, 3-{3-[3-Chloro-5-(trifluoromethyl)pyridin-2-yl]azetidine-1-carbonyl}-4-(3,3-difluorocyclobutyl)-2-methoxybenzonitrile] | < 100 nM
23 | COc1c(C#N)ccc(OC(C)C(F)(F)F)c1C(=O)N1CC(c2ccc(C#N)cc2)C1 (centres unmarked) [Example 95, 3-{[3-(4-Cyanophenyl)azetidin-1-yl]carbonyl}-2-methoxy-4-[(1,1,1-trifluoropropan-2-yl)oxy]benzonitrile] | 100 to 1000 nM
24 | COc1c(C#N)ccc(C2(F)CCOCC2)c1C(=O)N1CC(c2ccc(C(F)(F)F)nc2)C1 [Example 27, 4-(4-Fluorooxan-4-yl)-2-methoxy-3-({3-[6-(trifluoromethyl)pyridin-3-yl]azetidin-1-yl}carbonyl)benzonitrile] | 100 to 1000 nM
25 | COc1c(S(C)(=O)=O)ccc(OC(C)C)c1C(=O)N1CC(c2ccc(C(F)(F)F)cc2)C1 [Example 217, 1-[3-Methanesulfonyl-2-methoxy-6-(propan-2-yloxy)benzoyl]-3-[4-(trifluoromethyl)phenyl]azetidine] | 100 to 1000 nM
26 | COc1c(C#N)ccc(O[C@@H](C)C(F)(F)F)c1C(=O)N1CC(c2cc(F)cc(F)c2)C1 [Example 53, 3-[3-(3,5-Difluorophenyl)azetidine-1-carbonyl]-2-methoxy-4-{[(2S)-1,1,1-trifluoropropan-2-yl]oxy}benzonitrile] | 100 to 1000 nM
27 | COc1c(C#N)ccc(C2(F)CCOCC2)c1C(=O)N1CC(Oc2ccc(F)cc2)C1 [Example 26, 4-(4-Fluorooxan-4-yl)-3-{[3-(4-fluorophenoxy)azetidin-1-yl]carbonyl}-2-methoxybenzonitrile] | 1000 to 10000 nM
28 | COc1cc(C2CN(C(=O)c3c(O[C@@H](C)C(F)(F)F)ccc(C#N)c3OC)C2)ccc1C#N [Example 174, 3-{[3-(4-Cyano-3-methoxyphenyl)azetidin-1-yl]carbonyl}-2-methoxy-4-{[(2S)-1,1,1-trifluoropropan-2-yl]oxy}benzonitrile] | < 100 nM
29 | CC(Oc1ccc(C#N)c(Cl)c1C(=O)N1CC(c2ccc(C#N)cc2)C1)C(F)(F)F (centres unmarked) [Example 79, 2-Chloro-3-{[3-(4-cyanophenyl)azetidin-1-yl]carbonyl}-4-[(1,1,1-trifluoropropan-2-yl)oxy]benzonitrile] | 1000 to 10000 nM
